Reference: the supplement of paper PMC4862054

Experiments:
Conditions in all cases: incubation time: 72 h
DU-4475 [1] = test: normalised viability (% of control), CellTiter-Blue; higher = more viable cells (100 = DMSO, 0 = benzethonium chloride kill control)
Method: (§1)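 DSRT, CellTiter-Blue viability, 72 h incubation. Signal is normalised to DMSO and benzethonium chloride controls. Value is the normalised response at dose 1.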

MDA-MB-436 [2] = test: as above
Method: as §1

CAL-85-1 [3] = test: as above
Method: as §1

HCC1937 = test: as above
Method: as §1

BT-549 = test: as above
Method: as §1

BT-474 [4] = test: as above
Method: as §1

MDA-MB-468 = test: as above
Method: as §1

MFM-223 [5] = test: as above
Method: as §1

CAL-51 [6] = test: as above
Method: as §1

MDA-MB-453 [7] = test: as above
Method: as §1

Hs578T [8] = test: as above
Method: as §1

CAL-148 [9] = test: as above
Method: as §1

SK-BR-3 = test: as above
Method: as §1

HDQ-P1 = test: as above
Method: as §1

HCC1143 [10] = test: as above
Method: as §1

CAL-120 [11] = test: as above
Method: as §1

HCC1599 [12] = test: as above
Method: as §1

MDA-MB-231 = test: as above
Method: as §1

CAL-85-1 [13] = test: normalised viability (% of control), CellTiter-Blue; higher = more viable cells (about 100 = DMSO control)
Procedure, shortened: (§2)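 After 72 h on compound-loaded 384-well plates, breast cancer cell lines received 2.5 µl CellTiter-Blue reagent for 2 h at 37 °C. Fluorescence at 560/590 nm was scaled per plate so that vehicle was 100 and a positive kill control was 0. The value stands for normalised viability at a single listed concentration of the series.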

CAL-148 [14] = test: as above
Procedure, shortened: as §2

DU-4475 [15] = test: normalised viability (% of control), CellTiter-Blue; higher = more viable cells (about 100 = DMSO control)
Method: (§3)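 DSRT, CellTiter-Blue viability, 72 h incubation. Signal is normalised to DMSO and benzethonium chloride controls. Value is the normalised response at dose 3.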

MDA-MB-436 [16] = test: as above
Method: as §3

BT-474 [17] = test: as above
Method: as §3

MFM-223 [18] = test: as above
Method: as §3

CAL-51 [19] = test: as above
Method: as §3

MDA-MB-453 [20] = test: as above
Method: as §3

Hs578T [21] = test: as above
Method: as §3

HCC1143 [22] = test: as above
Method: as §3

CAL-120 [23] = test: as above
Method: as §3

HCC1599 [24] = test: as above
Method: as §3

CCN(CC)CCCC(C)Nc1c2ccc(Cl)cc2nc2ccc(OC)cc12 (stereo not given) [Mepacrine]
Conditions	normalised viability [%]
BT-474 [4], 0.099 nM	74.2
BT-474 [4], 1 nM	113
BT-474 [17], 9.9 nM	113
BT-474 [17], 100 nM	109
BT-549, 0.099 nM	96.1
BT-549, 1 nM	86.5
CAL-51 [6], 0.099 nM	90.8
CAL-51 [6], 1 nM	97.2
CAL-51 [19], 0.99 nM	95.9
CAL-51 [19], 10 nM	99.6
CAL-85-1 [3], 0.099 nM	101
CAL-85-1 [3], 1 nM	94.5
CAL-85-1 [13], 99 nM	97.8
CAL-85-1 [13], 1000 nM	90.3
CAL-120 [11], 0.099 nM	114
CAL-120 [11], 1 nM	97.7
CAL-120 [23], 9.9 nM	117
CAL-120 [23], 100 nM	104
CAL-148 [9], 0.099 nM	115
CAL-148 [9], 1 nM	96.9
CAL-148 [14], 99 nM	122
CAL-148 [14], 1000 nM	81.4
DU-4475 [1], 0.099 nM	93.5
DU-4475 [1], 1 nM	111
DU-4475 [15], 0.99 nM	83.1
DU-4475 [15], 10 nM	96.4
HCC1143 [10], 0.099 nM	108
HCC1143 [10], 1 nM	98.1
HCC1143 [22], 9.9 nM	130
HCC1143 [22], 100 nM	106
HCC1599 [12], 0.099 nM	102
HCC1599 [12], 1 nM	96.2
HCC1599 [24], 9.9 nM	88.2
HCC1599 [24], 100 nM	88.9
HCC1937, 0.099 nM	94.7
HCC1937, 1 nM	86
HDQ-P1, 0.099 nM	115
HDQ-P1, 1 nM	108
Hs578T [8], 0.099 nM	113
Hs578T [8], 1 nM	127
Hs578T [21], 9.9 nM	114
Hs578T [21], 100 nM	110
MDA-MB-231, 0.099 nM	95.4
MDA-MB-231, 1 nM	101
MDA-MB-436 [2], 0.099 nM	112
MDA-MB-436 [2], 1 nM	101
MDA-MB-436 [16], 9.9 nM	108
MDA-MB-436 [16], 100 nM	91.3
MDA-MB-453 [7], 0.099 nM	98
MDA-MB-453 [7], 1 nM	106
MDA-MB-453 [20], 0.99 nM	98.4
MDA-MB-453 [20], 10 nM	100
MDA-MB-468, 0.099 nM	108
MDA-MB-468, 1 nM	101
MFM-223 [5], 0.099 nM	103
MFM-223 [5], 1 nM	96
MFM-223 [18], 9.9 nM	97
MFM-223 [18], 100 nM	97.9
SK-BR-3, 0.099 nM	100
SK-BR-3, 1 nM	101

C[C@H]1C[C@@H]2[C@H]([C@@H](O)C[C@@]3(C)[C@H]2CC[C@]3(O)C(=O)CO)[C@@]2(C)C=CC(=O)C=C12 [Methylprednisolone]
Conditions	normalised viability [%]
BT-474 [4], 1 nM	108
BT-474 [17], 100 nM	119
BT-549, 1 nM	93
CAL-51 [6], 1 nM	103
CAL-51 [19], 10 nM	101
CAL-85-1 [3], 1 nM	84.6
CAL-85-1 [13], 1000 nM	97
CAL-120 [11], 1 nM	81.9
CAL-120 [23], 100 nM	79.8
CAL-148 [9], 1 nM	105
CAL-148 [14], 1000 nM	108
DU-4475 [1], 1 nM	95.4
DU-4475 [15], 10 nM	101
HCC1143 [10], 1 nM	93.3
HCC1143 [22], 100 nM	86.6
HCC1599 [12], 1 nM	114
HCC1599 [24], 100 nM	108
HCC1937, 1 nM	83.7
HDQ-P1, 1 nM	97.7
Hs578T [8], 1 nM	122
Hs578T [21], 100 nM	85.3
MDA-MB-231, 1 nM	103
MDA-MB-436 [2], 1 nM	108
MDA-MB-436 [16], 100 nM	94.6
MDA-MB-453 [7], 1 nM	95.4
MDA-MB-453 [20], 10 nM	100
MDA-MB-468, 1 nM	101
MFM-223 [5], 1 nM	92.7
MFM-223 [18], 100 nM	81.1
SK-BR-3, 1 nM	92.2
